Experimental data reported in paper PMC5522078, “Discovery and characterization of small molecules targeting the DNA-binding ETS domain of ERG in prostate cancer” (Oncotarget, 2017).

Assays:
ETS domain of ETV4 = target: T1, ETS domain of ETV4 (Homo sapiens, UniProt P43268); experiment: Preliminary NMR spectroscopic experiments, ETV4; assay type: binding
T1 sequence (P43268 341-421 limits assumed): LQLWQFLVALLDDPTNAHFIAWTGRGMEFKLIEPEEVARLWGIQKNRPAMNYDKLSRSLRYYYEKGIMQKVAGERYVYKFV

RWPE-ERG cells = experiment: MTS cell viability assay, RWPE-ERG; assay type: cell-based; details: increasing concentrations (0.2 to 25 μM), 72 h
Experimental: Twenty four hours later, 100 μL of medium containing vehicle control or compounds. Each treatment was prepared in triplicate. After a 72 h treatment, cellular viability was assessed using CellTiter 96 ® Aqueous One Solution Cell Proliferation Assay reagent (Promega) according to the manufacturer's instructions. Values were normalized to the DMSO control. page 8: Supplementary Figure 4: VPC-18005 suppresses migration, but not growth of RWPE-1-ERG cells. (A) Cell viability (MTS) of ERG-expressing cells (RWPE-ERG) (closed circle) and non-ERG expressing cells (RWPE-MOCK (open square)) after treatment […] Impact on viability is presented as the mean ± SEM […] (B) RWPE-1-Mock or (C) […] The normalized cell index is a measure of the migration of the cells through the pores of the upper chamber and is used as the migration index. Dotted lines represent 1 standard deviation (SD) of the mean migration rate.

ETS domain of PU.1 = ETS domain of PU.1 (Homo sapiens, UniProt P17947); experiment: Preliminary NMR spectroscopic experiments, PU.1; assay type: binding
ERG = target: T2, ERG (Homo sapiens, UniProt P11308); experiment: ERG protein stability, Western blot after cycloheximide; assay type: cell-based; details: VCaP cells
T2 construct: VCaP (endogenous overexpression); endogenous in cells; host or cells: VCaP (whole cells for A2 and A17; nuclear extract for A16)
T2 sequence (P11308 33-479 limits assumed): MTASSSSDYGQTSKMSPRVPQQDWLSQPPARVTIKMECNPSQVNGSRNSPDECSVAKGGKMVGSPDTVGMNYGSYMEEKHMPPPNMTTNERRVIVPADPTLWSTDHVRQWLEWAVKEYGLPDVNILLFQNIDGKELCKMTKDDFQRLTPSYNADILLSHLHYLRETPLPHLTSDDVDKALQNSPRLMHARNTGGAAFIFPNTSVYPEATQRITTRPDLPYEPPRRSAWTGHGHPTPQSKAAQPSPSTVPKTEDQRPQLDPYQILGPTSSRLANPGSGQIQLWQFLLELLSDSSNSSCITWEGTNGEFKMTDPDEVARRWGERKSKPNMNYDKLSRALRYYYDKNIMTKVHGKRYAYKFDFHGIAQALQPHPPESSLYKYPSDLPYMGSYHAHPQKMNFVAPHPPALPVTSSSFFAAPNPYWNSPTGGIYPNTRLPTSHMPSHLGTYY
Experimental: Cells were lysed on ice with RIPA buffer containing a protease inhibitor cocktail (Pierce). Primary antibodies: ERG (1:1,000, EPR3864(2), Abcam), α-Tubulin (1:20,000, Millipore), Vinculin (1:1,000, Abcam). Immunoreactivity was detected with the use of the goat anti-rabbit or rabbit anti-mouse horseradish peroxidase (HPR)–conjugated secondary antibody (1:10,000) (Santa Cruz), and visualization was achieved by chemiluminescence (Pierce). To inhibit protein synthesis, 10 μM cycloheximide was added for 1 h and then replaced with treatment medium for indicated time frame.

SOX9 = SOX9 gene expression in VCaP cells; assay type: cell-based, human; details: 25 μM, with and without 1 nM R1881
Experimental: Total RNA was extracted from VCaP cells with the use of RNeasy Plus kit (Qiagen). Reverse transcription was performed with the use of the iScript First-Strand cDNA Synthesis Kit (Bio-Rad Laboratories) with 100 ng total RNA used as template. Real time reverse-transcription (RT) polymerase chain reaction (PCR) primers for ERG synthesized by IDT (forward, 5′- CGCAGATTATCGT GCCAGCAGAT -3′; reverse, 5′- CCATATTCTTTCACC GCCCACTCC-3′) and SOX9 (Quantitect primer assay, Qiagen). Real-time quantitative RT-PCR was performed in triplicate for each sample with the use of the ABI ViiA7 QPCR thermocycler. In each reaction, 1 μl cDNA, 1 μl forward and reverse primers (or 1 μl of Quantitect primers), and 6 μl Sybr Green Master Mix (Applied Biosystems) were added with water to make a final volume of 12 μl. All primers were used at a concentration of 5 μmol/l. PCR cycling conditions were 95°C for 10 minutes followed by 40 cycles of 95°C for 15 seconds, 60°C for 1 min. Data was normalized to reference genes: GAPDH (forward, 5′- […] -3′; reverse, 5′- […] -3′) The 2^−ΔΔCT method was used to compare samples. PCR product specificity was validated with the use of a melt curve.

VCaP cells = tested on: VCaP cells; design: method as in PMID 21559405; details: read-out: IC50 for cytotoxicity in VCaP cells; cited from earlier work

## CC(C)c1ccc(C=N/N=C2\NC(=O)[C@@H](CC(=O)O)S2)cc1 (stereo in doubt) [VPC-18005, 2-((Z)-2-(((Z)-4-isopropylbenzylidene)hydrazono)-4-oxothiazolidin-5-yl)acetic acid]
ETS domain of ETV4
  Interaction with the ETS domain of ETV4: interacts
RWPE-ERG cells
  Effect on cell viability (MTS), RWPE cells overexpressing ERG: No effect on cell viability
ETS domain of PU.1
  Interaction with the ETS domain of PU.1: interacts
ERG; cycloheximide pre-treatment, up to 50 μM for 4 h
  ERG protein degradation, 4 h: did not induce ERG degradation
ERG; cycloheximide, 24 and 48 h
  ERG protein degradation, 24 and 48 h: no observable ERG protein degradation
SOX9
  Basal and R1881-stimulated SOX9 mRNA and protein expression: markedly decreased

## COc1ccc(C(=O)CC2(O)C(=O)Nc3c(Cl)ccc(Cl)c32)cc1 (stereo not shown) [YK-4-279, reference compound]
VCaP cells
  IC50: 10 µM
